Test [1] has as its target Transcriptional enhancer factor TEF-5 (Homo sapiens, UniProt Q99594). Briefly: Inhibition of His-tagged TEAD3 (unknown origin) preincubated for 0.5 to 4 hrs followed by biotinylated lipid pocket probe addition and measured after 60 min by TR-FRET assay. On the technique in general: Time-resolved FRET reads energy transfer from a long-lived donor to a nearby acceptor.
The target in test [2] is Transcriptional enhancer factor TEF-1 (Homo sapiens, UniProt P28347). In words: Inhibition of His-tagged TEAD1 (unknown origin) preincubated for 0.5 to 4 hrs followed by biotinylated lipid pocket probe addition and measured after 60 min by TR-FRET assay.
The target in test [3] is Transcriptional enhancer factor TEF-3 (Homo sapiens, UniProt Q15561). In words: Inhibition of His-tagged TEAD4 (unknown origin) preincubated for 0.5 to 4 hrs followed by biotinylated lipid pocket probe addition and measured after 60 min by TR-FRET assay.
For test [4], the target named is Transcriptional enhancer factor TEF-4 (Homo sapiens, UniProt Q15562). Briefly: Inhibition of His-tagged TEAD2 (unknown origin) preincubated for 0.5 to 4 hrs followed by biotinylated lipid pocket probe addition and measured after 60 min by TR-FRET assay.

The term IC50 denotes the point on the concentration scale where inhibition reaches its midpoint.

Chain of Transcriptional enhancer factor TEF-3 (Q15561 whole entry): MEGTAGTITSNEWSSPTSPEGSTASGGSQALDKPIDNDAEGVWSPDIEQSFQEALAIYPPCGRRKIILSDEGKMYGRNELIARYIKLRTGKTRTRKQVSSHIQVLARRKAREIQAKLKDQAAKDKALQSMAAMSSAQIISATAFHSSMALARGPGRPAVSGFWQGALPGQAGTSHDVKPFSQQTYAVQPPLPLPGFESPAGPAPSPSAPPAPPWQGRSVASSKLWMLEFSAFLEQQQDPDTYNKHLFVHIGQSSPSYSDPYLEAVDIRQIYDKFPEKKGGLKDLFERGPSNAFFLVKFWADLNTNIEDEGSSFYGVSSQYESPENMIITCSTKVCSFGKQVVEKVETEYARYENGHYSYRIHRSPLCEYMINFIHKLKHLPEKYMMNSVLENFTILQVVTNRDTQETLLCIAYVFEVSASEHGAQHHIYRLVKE
Chain of Transcriptional enhancer factor TEF-1 (P28347 whole entry): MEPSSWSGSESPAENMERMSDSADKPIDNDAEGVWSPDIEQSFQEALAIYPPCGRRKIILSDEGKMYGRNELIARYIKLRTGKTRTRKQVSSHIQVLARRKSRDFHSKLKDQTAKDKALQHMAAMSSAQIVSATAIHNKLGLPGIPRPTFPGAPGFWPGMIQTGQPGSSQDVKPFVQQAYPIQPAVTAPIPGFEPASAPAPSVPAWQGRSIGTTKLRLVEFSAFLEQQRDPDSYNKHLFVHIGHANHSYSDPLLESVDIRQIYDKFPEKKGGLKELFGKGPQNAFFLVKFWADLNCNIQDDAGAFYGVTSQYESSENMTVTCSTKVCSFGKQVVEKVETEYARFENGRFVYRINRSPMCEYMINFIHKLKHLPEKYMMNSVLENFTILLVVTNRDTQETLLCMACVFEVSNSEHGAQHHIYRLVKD
Chain of Transcriptional enhancer factor TEF-5 (Q99594 whole entry): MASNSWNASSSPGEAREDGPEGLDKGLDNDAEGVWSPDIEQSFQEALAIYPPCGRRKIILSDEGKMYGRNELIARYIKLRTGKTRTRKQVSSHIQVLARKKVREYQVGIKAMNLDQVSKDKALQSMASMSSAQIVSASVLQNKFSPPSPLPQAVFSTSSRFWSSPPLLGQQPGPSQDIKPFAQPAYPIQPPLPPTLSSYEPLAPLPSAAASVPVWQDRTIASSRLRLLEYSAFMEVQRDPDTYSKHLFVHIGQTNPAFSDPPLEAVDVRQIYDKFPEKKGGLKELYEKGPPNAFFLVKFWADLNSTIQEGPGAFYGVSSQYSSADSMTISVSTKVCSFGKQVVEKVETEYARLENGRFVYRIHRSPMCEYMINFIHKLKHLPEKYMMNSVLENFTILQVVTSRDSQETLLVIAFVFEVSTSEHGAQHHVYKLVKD
Chain of Transcriptional enhancer factor TEF-4 (Q15562 whole entry): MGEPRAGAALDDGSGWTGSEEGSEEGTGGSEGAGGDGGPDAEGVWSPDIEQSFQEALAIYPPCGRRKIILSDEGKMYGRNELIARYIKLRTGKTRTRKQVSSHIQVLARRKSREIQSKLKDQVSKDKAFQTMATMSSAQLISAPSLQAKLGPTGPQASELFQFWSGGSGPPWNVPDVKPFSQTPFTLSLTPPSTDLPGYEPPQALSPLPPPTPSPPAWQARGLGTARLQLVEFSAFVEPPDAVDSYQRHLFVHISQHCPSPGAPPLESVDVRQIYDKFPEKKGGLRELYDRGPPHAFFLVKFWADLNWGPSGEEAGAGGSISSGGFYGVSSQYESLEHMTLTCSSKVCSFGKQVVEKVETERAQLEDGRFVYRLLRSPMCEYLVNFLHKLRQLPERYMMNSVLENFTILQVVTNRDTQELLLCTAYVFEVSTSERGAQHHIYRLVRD

As to `C#Cc1ccnc2c1c(C1CN(C(=O)C=C)C1)nn2-c1ccc(OC(F)(F)F)cc1`, the IC50 worked out at 5 nM in test [1], 4 nM in test [2], 9 nM in test [3] and 2 nM in test [4].

For the compound `O=C(/C=C/CO)N1CC(c2nn(-c3ccc(OC(F)(F)F)cc3)c3nccc(Cl)c23)C1`, the IC50 came to 8 nM in test [2] and 3 nM in test [3].
